# Assay results reported in PubChem BioAssay (NCI).
#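 96-well plates; 48 h exposure; 5 concentrations. Endpoints by linear interpolation between flanking doses. Not reached: highest tested concentration assigned. TGI is the concentration that stops growth completely.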
# Key:
# Assay in all cases: growth of human tumour cells (NCI), 48 h
# CCRF-CEM leukemia = system: CCRF-CEM leukemia
# COLO 205 colon = system: COLO 205 colon
# HL-60(TB) leukemia = system: HL-60(TB) leukemia
# HOP-92 NSCLC = system: HOP-92 NSCLC
# IGROV1 ovarian = system: IGROV1 ovarian
# K-562 leukemia = system: K-562 leukemia
# KM12 colon = system: KM12 colon
# LOX IMVI melanoma = system: LOX IMVI melanoma
# MALME-3M melanoma = system: MALME-3M melanoma
# NCI-H226 lung = system: NCI-H226 lung
# NCI-H23 lung = system: NCI-H23 lung
# NCI-H460 lung = system: NCI-H460 lung
# PC-3 prostate = system: PC-3 prostate
# SF-268 CNS = system: SF-268 CNS
# SK-MEL-2 melanoma = system: SK-MEL-2 melanoma
# SN12C renal = system: SN12C renal
# SNB-75 CNS = system: SNB-75 CNS
# SR leukemia = system: SR leukemia
# SW-620 colon = system: SW-620 colon
# T-47D breast = system: T-47D breast
SMILES,TGI (CCRF-CEM leukemia) [µM],TGI (COLO 205 colon) [µM],TGI (HL-60(TB) leukemia) [µM],TGI (HOP-92 NSCLC) [µM],TGI (IGROV1 ovarian) [µM],TGI (K-562 leukemia) [µM],TGI (KM12 colon) [µM],TGI (LOX IMVI melanoma) [µM],TGI (MALME-3M melanoma) [µM],TGI (NCI-H226 lung) [µM],TGI (NCI-H23 lung) [µM],TGI (NCI-H460 lung) [µM],TGI (PC-3 prostate) [µM],TGI (SF-268 CNS) [µM],TGI (SK-MEL-2 melanoma) [µM],TGI (SN12C renal) [µM],TGI (SNB-75 CNS) [µM],TGI (SR leukemia) [µM],TGI (SW-620 colon) [µM],TGI (T-47D breast) [µM]
O=C(O)c1ccccc1CC1Cc2ccc3c(c2C1=O)CCC3 (stereo not given),> 100,> 100,> 100,> 100,> 100,> 100,> 100,> 100,> 100,> 100,> 100,> 100,> 100,> 100,> 100,> 100,> 100,> 100,> 100,> 100
CC(=O)Nc1ccc(CNc2cc(=O)n(C)c(=O)[nH]2)cc1,> 100,> 100,> 100,> 100,> 100,> 100,> 100,> 100,> 100,> 100,> 100,> 100,> 100,> 100,> 100,> 100,> 100,> 100,> 100,> 100
COc1cc(C=C2N=C(c3ccccc3)N(n3c(-c4ccccc4)nc4ccccc4c3=O)C2=O)cc(OC)c1OC,> 100,52.8,> 100,33.7,94.4,> 100,46.3,41.3,38.6,49.4,56.6,47.2,> 100,69,43.4,36.2,62.6,> 100,> 100,50.2
